# Source: PMC12234328, “A naphthalimide derivative exerts potent antiplatelet and antithrombotic activities without a bleeding tendency” (Frontiers in Pharmacology, 2025)
# Assays:
# [1] = test system: GPIIb–IIIa activation in human platelets; assay: GPIIb-IIIa activation by flow cytometry (APC-PAC-1); assay type: cell-based; settings: 2.5 and 5 μM, collagen 1 μg/mL, n = 4
# Protocol: Flow cytometry was performed as previously described ([Lien et al., 2017]). After 20 min of collagen stimulation, the human platelets were fixed and labeled with APC-conjugated PAC-1 antibodies for 30 min to detect the level of GPIIb–IIIa activation. After centrifugation and washing, the platelets were suspended in 1 mL of phosphate-buffered saline and analyzed using a CytoFLEX flow cytometer (Beckman Coulter Life Sciences, Indianapolis, IN, United States). In the flow cytometry setup, platelets were gated using forward scatter and side scatter, and the number of events was set to stop at 10,000 counts. All experiments were performed at least three times to ensure reliable results.
# (§1) FIGURE 8 Effects of compound 6 on ATP release, calcium mobilization, and GPIIb–IIIa activation triggered by collagen in human platelets. Washed platelets (3.6 × 10^8 cells/mL) were treated with compound 6 (C6, 2.5 and 5 μM) or DMSO and then stimulated with collagen (1 μg/mL) to trigger ATP release (A), calcium mobilization (B), and GPIIb–IIIa activation (C) that were detected using luciferase/luciferin, Fura-2 AM, and APC–PAC1 antibodies, respectively. Data (A–C) are presented as means ± SEM (n = 4). **p < 0.01 and ***p < 0.001 compared with the resting group. #p < 0.05, ##p < 0.01, and ###p < 0.001 compared with the DMSO (solvent control) group.
# [2] = test system: FeCl3-induced thrombosis in mesenteric artery; assay: FeCl3-induced mesenteric artery thrombosis in mice; assay type: in vivo; settings: 1.2 mg/kg i.v., 30% FeCl3, relative to DMSO group
# Protocol: Mice were anesthetized with an oxygen–air mixture containing 3% isoflurane at a gas flow rate of 1.5–2 L/min. To label platelets, they were injected with the fluorescent dye rhodamine 6G (0.6 mg/kg). 10 min before FeCl3 treatment, mice were intravenously administered DMSO (1.1 g/kg, solvent control), compound 6 (1.2 mg/kg), or aspirin (20 mg/kg, positive control). The mesenteric arteries were surgically exposed and injured by applying a filter paper saturated with 30% FeCl3 for 5 min to induce thrombosis. Thrombus formation was then continuously monitored using a fluorescence microscope (Olympus, Tokyo, Japan).
# FIGURE 4 Effects of compound 6 on collagen/epinephrine-induced pulmonary thrombosis and FeCl3-induced thrombosis in mesenteric artery. Mice were intravenously administered with DMSO (solvent control), compound 6 (1.2 mg/kg), or aspirin (20 mg/kg, positive control) for 10 min (A) Mice were injected with collagen/epinephrine to induce pulmonary embolism, which was detected through staining with Evans blue (left panel). The survival rate was recorded for 24 h (right panel). Data are presented as means ± SEM (n = 6). **p < 0.01 compared with the sham group. #p < 0.05 compared with the DMSO (solvent control) group. (B) FeCl3-induced thrombosis in mesenteric artery as observed under real-time fluorescent microscopy. […] Scale bar = 100 µm. […]
# [3] = test system: collagen-triggered calcium mobilization in human platelets; assay: Calcium mobilization in human platelet suspensions (Fura-2 AM); assay type: cell-based; settings: 2.5 and 5 μM, collagen 1 μg/mL, n = 4
# Protocol: Adenosine triphosphate (ATP) release and calcium mobilization were assessed as previously described ([Shih et al., 2021]). Luciferase–luciferin and Fura-2 AM were used to detect ATP release and calcium mobilization, respectively. The intensity of luminescence (indicating ATP release) and the fluorescence ratio (340 nm/380 nm) for calcium mobilization were measured using a Hitachi Spectrometer F-7000 (Tokyo, Japan) following the manufacturer’s instructions.
# as §1
# [4] = test system: GPVI signaling (Lyn, Fyn, PLCγ2, PKC substrate p47, Akt, MAPKs); assay: Western blotting of GPVI signaling in collagen-stimulated platelets; assay type: cell-based, human; settings: collagen 1 μg/mL
# Protocol: Western blotting was performed as described previously ([Lien et al., 2017]). Human platelet suspensions (3.6 × 10^8 cells/mL) were pretreated with compound 6 (2.5 and 5 μM) or 0.1% DMSO for 3 min and then treated with collagen for 6 min. After centrifugation, the platelet pellets were immediately resuspended in lysis buffer (200 μL) for 1 h. The supernatants were collected after centrifugation at 5,000 g for 5 min, and the protein extracts (80 μg) were subjected to 8%–12% sodium dodecylsulfate–polyacrylamide gel electrophoresis. The separated proteins were then electrotransferred onto a polyvinylidene fluoride membrane through a semidry transfer (Thermo Fisher, Waltham, MA, United States). The membrane was blocked with TBST (10 mM Tris-base, 100 mM NaCl, and 0.01% Tween-20) containing 5% B.S.A. for 1 h. After being washed three times, the membrane was incubated with various specific primary antibodies (1:1,000). Subsequently, the membrane was incubated with HRP-conjugated antibodies (1:5,000) for 1 h. Immunoreactive bands were developed using an electrochemiluminescence kit and analyzed using Celvin S (Biostep, Burkhardtsdorf, Germany).
# FIGURE 5 Effects of compound 6 on the phosphorylation of Fyn, Lyn, PLCγ2, and PKC substrates (p47) induced by collagen in human platelets. (A–D) Washed platelets (3.6 × 10^8 cells/mL) were treated with compound 6 (2.5 and 5 μM) or DMSO before adding collagen (1 μg/mL). Proteins of these samples were separated by Western blotting. These targets (Fyn, Lyn, PLCγ2, and p47) were detected using specific antibodies. Data (A–D) are presented as means ± SEM (n = 5). **p < 0.01 and ***p < 0.001 compared with the resting group. #p < 0.05, ##p < 0.01, and ###p < 0.001 compared with the DMSO (solvent control) group.
# FIGURE 6 Effects of compound 6 on the phosphorylation of Akt, and MAPKs induced by collagen in human platelets. Washed platelets (3.6 × 10^8 cells/mL) were treated with compound 6 (2.5 and 5 μM) or DMSO before adding collagen (1 μg/mL). […] Akt (A), p38 MAPK (B), ERK (C), and JNK (D) were detected using specific antibodies. […]
smiles,measurement,setting,value
CCCCN1C(=O)c2cccc3c(NCCNC(=O)C45CC6CC(CC(C6)C4)C5)ccc(c23)C1=O [compound 6],GPIIb–IIIa activation,[1],significantly reduce
same,Platelet accumulation on the injured vessels (rhodamine 6G-labeled platelets),[2],delayed platelet accumulation
same,Calcium mobilization,[3],significantly reduce
same,"Collagen-induced phosphorylation of Akt and MAPKs (ERK, p38 MAPK, JNK)","[4]; 5 μM, n = 4",could be diminished
same,Collagen-induced Lyn and Fyn phosphorylation,"[4]; 2.5 and 5 μM, n = 5",could be reversed
same,Collagen-induced phosphorylation of PLCγ2 and the substrate of PKC (p47 proteins),"[4]; 2.5 and 5 μM, n = 5",significantly reduced
